Common to all, as to experiment: ≥ marks a high value that may be exact or a test limit, other limits are often not marked, values filed in µg/mL are converted to µM
For test [1], the system named is Acinetobacter baumannii ATCC 7978.
Test [2] deals with Candida albicans ATCC 10231.
For test [3], the system named is Enterococcus faecium E007.
Test [4] relates to Klebsiella pneumoniae WGLW2.
Test [5] relates to Staphylococcus aureus ATCC 29231.
Test [6] relates to Staphylococcus aureus MW2.
In test [7] the test system is Acinetobacter baumannii 97830.
In test [8] the test system is Acinetobacter baumannii 9931.
Test [9] concerns Acinetobacter baumannii ATCC 19606(CipR).
Test [10] relates to Acinetobacter baumannii ATCC 19606(GenR).
Test [11] has as its system Acinetobacter baumannii ATCC 19606(ImiR).
Test [12] concerns Acinetobacter baumannii ATCC 19606(RifR).
The subject of test [13] is Acinetobacter baumannii ATCC 19606.
The test system of test [14] is Bacillus subtilis ATCC 23857.
Test [15] relates to Escherichia coli 780.
The subject of test [16] is Escherichia coli 804.
The subject of test [17] is Escherichia coli ATCC 25922(CipR).
In test [18] the test system is Escherichia coli ATCC 25922(GenR).
Test [19] concerns Escherichia coli ATCC 25922(ImiR).
The subject of test [20] is Escherichia coli ATCC 25922(RifR).
Test [21] deals with Klebsiella pneumoniae ATCC 700603(CipR).
Test [22] has as its system Klebsiella pneumoniae ATCC 700603(GenR).
Test [23] relates to Klebsiella pneumoniae ATCC 700603(ImiR).
Test [24] relates to Klebsiella pneumoniae ATCC 700603(RifR).
In test [25] the test system is Klebsiella pneumoniae ATCC 700603.
For test [26], the system named is Pseudomonas aeruginosa 50.
Test [27] has as its system Pseudomonas aeruginosa ATCC 27853(CipR).
For test [28], the system named is Pseudomonas aeruginosa ATCC 27853(GenR).
Test [29] has as its system Pseudomonas aeruginosa ATCC 27853(ImiR).
Test [30] has as its system Pseudomonas aeruginosa ATCC 27853(RifR).
For test [31], the system named is Pseudomonas aeruginosa ATCC 27853.
Test [32] deals with Pseudomonas aeruginosa ATCC 9027.
The subject of test [33] is Staphylococcus aureus 113.
Test [34] relates to Staphylococcus aureus 75.
Test [35] has as its system Staphylococcus aureus ATCC 25923.
Test [36] concerns Staphylococcus aureus ATCC 29213.
The subject of test [37] is Staphylococcus epidermidis ATCC 12228.
For test [38], the system named is Klebsiella aerogenes ATCC 13048.
Test [39] concerns Pseudomonas aeruginosa PA14.
Test [40] relates to Bifidobacterium longum subsp. infantis.
Test [41] deals with Escherichia coli.
Test [42] relates to Staphylococcus aureus.
For test [43], the system named is Yersinia enterocolitica.
The test system of test [44] is Candida albicans DBFIQ 1.
Test [45] deals with Candida albicans PEEC 2.
Test [46] relates to Candida tropicalis DBFIQ 3.
In test [47] the test system is Enterococcus faecalis ATCC 29212.
The test system of test [48] is Escherichia coli ATCC 35218.
In test [49] the test system is Staphylococcus aureus BSF FBCB1313.

In brackets after ≈: the same amount, converted by molar mass. Several values for one entry are separate records, joined by “and”; a condition that tells them apart may be missing. Equal entries are not always repeated.

As a reminder, the MIC is the lowest concentration found to suppress growth. Read a high MIC as a less susceptible organism.

`CC[C@H](C)[C@H](NC(=O)[C@H](CCCCN)NC(=O)[C@H](Cc1c[nH]c2ccccc12)NC(=O)[C@@H](N)CC(C)C)C(=O)NCC(=O)N[C@@H](Cc1c[nH]c2ccccc12)C(=O)N[C@@H](CCCCN)C(=O)N[C@H](C(=O)N[C@@H](Cc1c[nH]c2ccccc12)C(=O)N[C@@H](CCCN=C(N)N)C(=O)N[C@H](C(=O)NCC(=O)O)C(C)C)[C@@H](C)CC` [LWKIGWKIWRVG]: the MIC in [1] is 20.8 µM (≈ 32 µg/mL); in test [2], 83 µM (≈ 128 µg/mL); in test [3] it was not below 83 µM; in [4], not below 41.5 µM; in test [5] it was not below 41.5 µM; in [6] it was not below 41.5 µM.

Regarding `NCCCC[C@H](NC(=O)[C@H](CCCN=C(N)N)NC(=O)[C@H](Cc1c[nH]c2ccccc12)NC(=O)[C@H](CCCCN)NC(=O)[C@H](CCCN=C(N)N)NC(=O)[C@H](Cc1c[nH]c2ccccc12)NC(=O)[C@H](CCCCN)NC(=O)[C@H](CCCN=C(N)N)NC(=O)[C@H](Cc1c[nH]c2ccccc12)NC(=O)[C@H](CCCCN)NC(=O)[C@H](CCCN=C(N)N)NC(=O)[C@H](Cc1c[nH]c2ccccc12)NC(=O)[C@H](CCCCN)NC(=O)[C@H](CCCN=C(N)N)NC(=O)[C@@H](N)Cc1c[nH]c2ccccc12)C(N)=O` [WRKWRKWRKWRKWRK], the MIC in test [7] amounted to 4 µM (≈ 9.48 µg/mL); in test [8] it was 8 µM (≈ 19 µg/mL); in [9], 8 µM (≈ 19 µg/mL); in [10], 16 µM (≈ 37.9 µg/mL); in test [11], 16 µM (≈ 37.9 µg/mL); in [12] it was 8 µM (≈ 19 µg/mL). The MIC in test [13] is 8 µM (≈ 19 µg/mL); in [14], 2 µM (≈ 4.74 µg/mL); in [15] it was 4 µM (≈ 9.48 µg/mL); in test [16], 16 µM (≈ 37.9 µg/mL); in [17], 8 µM (≈ 19 µg/mL); in test [18] it was 8 µM (≈ 19 µg/mL). The MIC in test [19], in [20], in [21], in test [22], in [23] and in test [24] was 16 µM (≈ 37.9 µg/mL) throughout. Further, the MIC in [25] is 8 µM (≈ 19 µg/mL); in test [26], 2 µM (≈ 4.74 µg/mL); in test [27], 4 µM (≈ 9.48 µg/mL); in test [28], not below 32 µM; in test [29] it was 8 µM (≈ 19 µg/mL); in test [30], 4 µM (≈ 9.48 µg/mL). In addition, the MIC in test [31] was 4 µM (≈ 9.48 µg/mL); in test [32], 4 µM (≈ 9.48 µg/mL); in test [33], 2 µM (≈ 4.74 µg/mL); in [34], 4 µM (≈ 9.48 µg/mL); in test [35] it was 4 µM and 8 µM; in test [36] it was 4 µM (≈ 9.48 µg/mL). In [37], the MIC turned out to be 2 µM (≈ 4.74 µg/mL).

On to `CC[C@H](C)[C@H](NC(=O)[C@H](CCCCN)NC(=O)[C@H](CCCCN)NC(=O)[C@H](Cc1c[nH]c2ccccc12)NC(=O)[C@@H](NC(=O)[C@H](CCCCN)NC(=O)[C@H](Cc1c[nH]c2ccccc12)NC(=O)[C@@H](N)CC(C)C)[C@@H](C)CC)C(=O)N[C@@H](Cc1c[nH]c2ccccc12)C(=O)N[C@@H](CCCN=C(N)N)C(=O)N[C@H](C(=O)N[C@@H](Cc1c[nH]c2ccccc12)C(=O)N[C@@H](CCCCN)C(=O)N[C@@H](CC(N)=O)C(=O)N[C@@H](Cc1c[nH]c2ccccc12)C(=O)N[C@@H](CCCN=C(N)N)C(=O)O)C(C)C` [LWKIWKKIWRVWKNWR], for which the MIC in test [1] is 27.5 µM (≈ 64 µg/mL); in [3] it was not below 55 µM; in test [38], 13.8 µM (≈ 32 µg/mL); in test [39] it was 13.8 µM (≈ 32 µg/mL); in [5], 3.44 µM (≈ 8 µg/mL).

In the case of `CC[C@H](C)[C@H](NC(=O)[C@@H](NC(=O)[C@@H]1CCCN1C(=O)[C@H](CC(C)C)NC(=O)[C@H](C)NC(=O)[C@H](CO)NC(=O)[C@@H](NC(=O)[C@@H](N)CCSC)[C@@H](C)O)[C@@H](C)CC)C(=O)N[C@@H](CCC(N)=O)C(=O)N[C@@H](CCCCN)C(=O)O` [MTSALPIIQK], the MIC in test [40] is not below 2720 µM; in [41] it was more than 2720 µM; in test [42], more than 2720 µM.

As for `CC[C@H](C)[C@H](NC(=O)[C@H](CCC(N)=O)NC(=O)[C@H](Cc1cnc[nH]1)NC(=O)[C@@H](NC(=O)[C@@H]1CCCN1C(=O)[C@H](CC(N)=O)NC(=O)[C@H](CC(C)C)NC(=O)[C@H](CC(C)C)NC(=O)[C@H](CC(C)C)NC(=O)[C@@H](N)CCC(=O)O)[C@@H](C)O)C(=O)N[C@@H](Cc1ccc(O)cc1)C(=O)N1CCC[C@H]1C(=O)N[C@H](C(=O)N[C@H](C(=O)N[C@@H](CCC(N)=O)C(=O)N1CCC[C@H]1C(=O)N[C@@H](CC(C)C)C(=O)N[C@@H](C)C(=O)N1CCC[C@H]1C(=O)N[C@H](C(=O)O)C(C)C)[C@@H](C)O)C(C)C` [ELLLNPTHQIYPVTQPLAPV], the MIC in [35] is 89.1 µM (≈ 200 µg/mL); in test [43], not below 89.1 µM.

In the case of `CC(C)C[C@H](NC(=O)[C@@H](N)CCCCN)C(=O)N[C@@H](Cc1ccccc1)C(=O)N[C@@H](CCCCN)C(N)=O` [KLFK], the minimum inhibitory concentration (MIC) in test [44] is not below 480 µM; in test [45], not below 480 µM; in test [46] it was not below 480 µM; in test [47], more than 240 µM; in test [48] it was not below 240 µM; in [31], more than 240 µM. Besides, the MIC in test [35] is more than 240 µM; in test [49] it was not below 240 µM.

These data come from DBAASP.
